For experiment [1], the target named is T1, human MC3R (Homo sapiens, UniProt P41968).
T1 construct: expressed in transfected cells; host or cells: HEK-293 cells stably expressing the GScAMP22F split-luciferase cAMP sensor (parent reporter line from Promega); MC3R clone generated in-house, G418 selection
Put plainly: split-luciferase cAMP sensor assay, agonist mode (measurement window 1), hMC3R. The experiment is classed as cell-based. Particulars: for Emax: read-out: MC3R cAMP % max activation; for pEC50: read-out: MC3R cAMP EC50. A digest of the protocol: (§1)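 EC50 values come from a four-parameter variable-slope fit of luminescence in measurement window 1, capturing direct peptide effects on receptor-expressing cells with a cAMP22f luciferase sensor. Cells were preloaded with 4% D-luciferin, serum-free medium; 20 μM forskolin normalized for cell number and transducer efficiency.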

In experiment [2] the target is T2, human MC4R (Homo sapiens, UniProt P32245).
T2 construct: host or cells: HEK-293 cells stably expressing the GScAMP22F split-luciferase cAMP sensor and hMC4R, G418 selection
T2 sequence (P32245 whole entry): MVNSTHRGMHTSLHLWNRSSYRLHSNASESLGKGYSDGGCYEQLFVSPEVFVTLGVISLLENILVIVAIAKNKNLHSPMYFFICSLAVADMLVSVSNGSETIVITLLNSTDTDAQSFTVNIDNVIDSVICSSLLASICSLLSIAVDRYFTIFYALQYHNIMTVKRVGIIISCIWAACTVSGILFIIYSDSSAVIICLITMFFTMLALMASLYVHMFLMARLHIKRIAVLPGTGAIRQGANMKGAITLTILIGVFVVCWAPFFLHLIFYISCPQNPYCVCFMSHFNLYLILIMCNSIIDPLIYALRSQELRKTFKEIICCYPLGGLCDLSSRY
The experiment can be described thus: split-luciferase cAMP sensor assay, agonist mode (measurement window 1), hMC4R. To be noted: for Emax / pEC50: agonist mode; for Emax: read-out: MC4R cAMP % max activation; for pEC50: read-out: MC4R cAMP EC50. The experiment is classed as cell-based. The gist of the method:
as §1

The mark [3] stands for this setting: agonist mode, hMC3R stable cell line.

pEC50: −log10 of the molar value. Where two headings read alike, the source gives them in different places. Positions of bridges follow the written chain, without caps; N, C: chain ends. Non-standard residues stand in square brackets, D forms with d. Residues, ends and D or L forms follow the SMILES beside them. dDip = N[C@@H](C(=O)O)C(c1ccccc1)c1ccccc1; dPhe(4-Br) = N[C@H](Cc1ccc(Br)cc1)C(=O)O; dPhe(4-I) = N[C@H](Cc1ccc(I)cc1)C(=O)O; 2Nal = N[C@@H](Cc1ccc2ccccc2c1)C(=O)O; Tic = O=C(O)[C@@H]1Cc2ccccc2CN1; Nle = CCCC[C@H](N)C(=O)O

T1 sequence (P41968 whole entry): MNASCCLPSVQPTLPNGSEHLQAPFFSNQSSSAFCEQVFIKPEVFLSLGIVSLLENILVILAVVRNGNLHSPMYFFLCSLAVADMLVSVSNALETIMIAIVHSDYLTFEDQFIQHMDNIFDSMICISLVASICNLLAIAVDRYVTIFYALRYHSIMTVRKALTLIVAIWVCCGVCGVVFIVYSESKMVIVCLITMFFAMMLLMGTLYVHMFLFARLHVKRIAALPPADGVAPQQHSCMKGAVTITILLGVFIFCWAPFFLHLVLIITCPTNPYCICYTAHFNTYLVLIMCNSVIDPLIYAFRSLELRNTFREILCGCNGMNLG

For `CC(=O)N[C@@H](CCCNC(=N)N)C(=O)N[C@H]1CSSC[C@@H](C(N)=O)NC(=O)[C@H](Cc2c[nH]c3ccccc23)NC(=O)[C@H](CCCNC(=N)N)NC(=O)[C@@H](Cc2ccc(Br)cc2)NC(=O)[C@@H]2CCCN2C(=O)[C@@H](C)NC1=O` [CTX-2204, Arg-cyclo(Cys-D-Ala-Pro-D-Phe(4-Br)-Arg-Trp-Cys)] (Ac-RC[dA]P[dPhe(4-Br)]RWC-NH2; disulfide 2-8 (inferred)), in experiment [1] (setting [3]), the Emax was found to be 0.2% and the pEC50 (as a rule, the EC50 on a negative log10 scale, so that one unit is a factor of ten) is 7.96. The “MC4R selectivity vs MC3R” value in experiment [2] is given as 0.19. In addition, the Emax in experiment [2] (hMC4R stable cell line) amounted to 13%.

For the compound `CCCC[C@H](NC(C)=O)C(=O)N[C@H]1CSSC[C@@H](C(=O)N[C@@H](CCCNC(=N)N)C(=O)N[C@@H](Cc2ccccc2)C(=O)NCC(N)=O)NC(=O)[C@@H](Cc2c[nH]c3ccccc23)NC(=O)[C@H](CCCNC(=N)N)NC(=O)[C@H](Cc2ccc3ccccc3c2)NC(=O)[C@H](Cc2c[nH]cn2)NC1=O` [CTX-2128, Nle-cyclo(Cys-His-Nal(2′)-Arg-D-Trp-Cys)-Arg-Phe-Gly] (Ac-[Nle]CH[2Nal]R[dW]CRFG-NH2; disulfide 2-7 (inferred)), the Emax came to 99% in experiment [1] (% maximal activation, agonist mode) and 87% in experiment [2] (% maximal activation). In addition, in experiment [1] (MC4R versus MC3R), the “MC4R selectivity vs MC3R” value is 0.01.

Take `CC(=O)N[C@@H](CCCNC(=N)N)C(=O)N[C@H]1CSSC[C@@H](C(=O)N[C@@H](CCCCN)C(=O)N2CCC[C@H]2C(=O)N[C@H](C(N)=O)C(C)C)NC(=O)[C@@H](Cc2c[nH]c3ccccc23)NC(=O)[C@H](CCCNC(=N)N)NC(=O)[C@@H](Cc2ccc(Br)cc2)NC(=O)[C@H](CCCNC(=N)N)NC(=O)[C@@H](C)NC1=O` [CTX-1216, Arg-cyclo(Cys-D-Ala-Arg-D-Phe(4-Br)-Arg-D-Trp-Cys)-Lys-Pro-Val] (Ac-RC[dA]R[dPhe(4-Br)]R[dW]CKPV-NH2; disulfide 2-8 (inferred)): in experiment [1] (setting [3]), the Emax came to 11% and the pEC50 was 8.46. In experiment [2], the “MC4R selectivity vs MC1R” value worked out at 0.82 and the “MC4R selectivity vs MC3R” value stood at 1.99. For the same compound, in experiment [2] (hMC4R stable cell line), the Emax was 69% and the pEC50 is 8.74.

`CC(=O)N[C@@H](CCCNC(=N)N)C(=O)N[C@H]1CSSC[C@@H](C(N)=O)NC(=O)[C@@H](Cc2c[nH]c3ccccc23)NC(=O)[C@H](CCCNC(=N)N)NC(=O)[C@@H](Cc2c[nH]c3ccccc23)NC(=O)[C@H](CCCNC(=N)N)NC(=O)[C@@H](C)NC1=O` [CTX-1275, Arg-cyclo(Cys-D-Ala-Arg-D-Trp-Arg-D-Trp-Cys)] (Ac-RC[dA]R[dW]R[dW]C-NH2; disulfide 2-8 (inferred)): in experiment [1] (setting [3]), the “MC3R cAMP % max activation” value is recorded as “(3.3%)” and the pEC50 is 6.61. For the same compound, in experiment [2], the “MC4R selectivity vs MC1R” value is recorded as 0.22 and the “MC4R selectivity vs MC3R” value stood at 0.27. Moreover, in experiment [2] (hMC4R stable cell line), the Emax worked out at 24% and the pEC50 was 6.04.

On to `CC(=O)N[C@@H](CCCNC(=N)N)C(=O)N[C@H]1CSSC[C@@H](C(N)=O)NC(=O)[C@@H]2Cc3ccccc3CN2C(=O)[C@H](CCCNC(=N)N)NC(=O)[C@@H](Cc2ccc(Br)cc2)NC(=O)[C@H](CCCNC(=N)N)NC(=O)[C@@H](C)NC1=O` [CTX-1259, Arg-cyclo(Cys-D-Ala-Arg-D-Phe(4-Br)-Arg-Tic-Cys)] (Ac-RC[dA]R[dPhe(4-Br)]R[Tic]C-NH2; disulfide 2-8 (inferred)), for which, in experiment [1] (setting [3]), the Emax amounted to 27%. In experiment [2], the “MC4R selectivity vs MC1R” value was found to be 0.01 and the “MC4R selectivity vs MC3R” value was found to be 0.12. For the same compound, the Emax in experiment [2] (hMC4R stable cell line) came to 70%.

For the compound `CC(=O)N[C@@H](CCCNC(=N)N)C(=O)N[C@H]1CSSC[C@@H](C(=O)N[C@@H](CCCNC(=N)N)C(=O)N[C@@H](Cc2ccccc2)C(N)=O)NC(=O)[C@@H](Cc2c[nH]c3ccccc23)NC(=O)[C@H](CCCNC(=N)N)NC(=O)[C@@H](Cc2ccc(Br)cc2)NC(=O)[C@H](CCCNC(=N)N)NC(=O)[C@@H](C)NC1=O` [CTX-1220, Arg-cyclo(Cys-D-Ala-Arg-D-Phe(4-Br)-Arg-D-Trp-Cys)-Arg-Phe] (Ac-RC[dA]R[dPhe(4-Br)]R[dW]CRF-NH2; disulfide 2-8 (inferred)), the Emax in experiment [1] (setting [3]) came to 21%. Also, in experiment [2], the “MC4R selectivity vs MC1R” value came out at 1.53 and the “MC4R selectivity vs MC3R” value was 3.82. Moreover, the Emax in experiment [2] (hMC4R stable cell line) was determined as 76%.

As for `CCCC[C@H](NC(C)=O)C(=O)N[C@H]1CSSC[C@@H](C(N)=O)NC(=O)[C@@H](Cc2c[nH]c3ccccc23)NC(=O)[C@H](CCCNC(=N)N)NC(=O)[C@@H](Cc2ccc(I)cc2)NC(=O)[C@H](Cc2c[nH]cn2)NC1=O` [CTX-1234, Nle-cyclo(Cys-His-D-Phe(4-I)-Arg-D-Trp-Cys)] (Ac-[Nle]CH[dPhe(4-I)]R[dW]C-NH2; disulfide 2-7 (inferred)), the Emax in experiment [1] (setting [3]) came to 18%. Further, in experiment [2], the “MC4R selectivity vs MC1R” value is 0.2 and the “MC4R selectivity vs MC3R” value amounted to 1.32. In experiment [2] (hMC4R stable cell line), the Emax was 16% and the pEC50 was 8.59.

As for `CC(=O)N[C@@H](CCCNC(=N)N)C(=O)N[C@H]1CSSC[C@@H](C(N)=O)NC(=O)[C@@H](Cc2c[nH]c3ccccc23)NC(=O)[C@@H](CCCNC(=N)N)NC(=O)[C@@H](Cc2ccccc2)NC(=O)[C@H](CCCNC(=N)N)NC(=O)[C@@H](C)NC1=O` [CTX-1283, Arg-cyclo(Cys-D-Ala-Arg-D-Phe-D-Arg-D-Trp-Cys)] (Ac-RC[dA]R[dF][dR][dW]C-NH2; disulfide 2-8), the Emax in experiment [1] (setting [3]) amounted to 7.8%. For the same compound, in experiment [2], the “MC4R selectivity vs MC1R” value came to 0.03 and the “MC4R selectivity vs MC3R” value turned out to be 0.12. In addition, the Emax in experiment [2] (hMC4R stable cell line) is 55%.

`CCCC[C@H](NC(=O)[C@H](CCCNC(=N)N)NC(C)=O)C(=O)N[C@H]1CSSC[C@@H](C(N)=O)NC(=O)[C@@H](Cc2c[nH]c3ccccc23)NC(=O)[C@H](CCCNC(=N)N)NC(=O)[C@@H](Cc2ccc(Br)cc2)NC(=O)[C@H](CCCNC(=N)N)NC1=O` [CTX-1613, Arg-Nle-cyclo(Cys-Arg-D-Phe(4-Br)-Arg-D-Trp-Cys)] (Ac-R[Nle]CR[dPhe(4-Br)]R[dW]C-NH2; disulfide 3-8 (inferred)): in experiment [1] (setting [3]), the Emax stood at 35% and the pEC50 was 8.40. In experiment [2], the “MC4R selectivity vs MC1R” value worked out at 0.79 and the “MC4R selectivity vs MC3R” value was determined as 2.1. Further, in experiment [2] (hMC4R stable cell line), the Emax came to 32% and the pEC50 was 8.72.

Regarding `CCCC[C@H](NC(=O)[C@H](CCCNC(=N)N)NC(C)=O)C(=O)N[C@H]1CSSC[C@@H](C(N)=O)NC(=O)[C@H](Cc2c[nH]c3ccccc23)NC(=O)[C@H](CCCNC(=N)N)NC(=O)[C@@H](Cc2ccc(OC)cc2)NC(=O)[C@H](CCCNC(=N)N)NC1=O` [CTX-1614, Arg-Nle-cyclo(Cys-Arg-D-Tyr(4-OMe)-Arg-Trp-Cys)] (Ac-R[Nle]CR[dY](Me)RWC-NH2; disulfide 3-8 (inferred)), the Emax in experiment [1] (setting [3]) was 28%. In experiment [2], the “MC4R selectivity vs MC1R” value is given as 0.08 and the “MC4R selectivity vs MC3R” value stood at 1.89. In experiment [2] (hMC4R stable cell line), the Emax is 41% and the pEC50 is 8.77.

Turning to `CC(=O)N[C@@H](CCCNC(=N)N)C(=O)N[C@H]1CSSC[C@@H](C(N)=O)NC(=O)[C@@H](Cc2c[nH]c3ccccc23)NC(=O)[C@H](CCCNC(=N)N)NC(=O)[C@@H](C(c2ccccc2)c2ccccc2)NC(=O)[C@H](CCCNC(=N)N)NC(=O)[C@@H](C)NC1=O` [CTX-1280, Arg-cyclo(Cys-D-Ala-Arg-D-Dip-Arg-D-Trp-Cys)] (Ac-RC[dA]R[dDip]R[dW]C-NH2; disulfide 2-8 (inferred)), the Emax in experiment [1] (setting [3]) is 2.6%. Besides, in experiment [2], the “MC4R selectivity vs MC1R” value was 0.1 and the “MC4R selectivity vs MC3R” value was determined as 1.24. In addition, in experiment [2] (hMC4R stable cell line), the Emax came out at 4%.

Source of the values: US20240391954A1, “MC4R AGONIST PEPTIDES” (The Regents of the University of Michigan, priority 2021, published 2024).
